# Laboratory results: patent US8178087B2, “Process of production of bacteriophage compositions and methods in phage therapy field” (priority 2006, dated 2012)
# Experiments:
# [1] = test system: uropathogenic Escherichia coli strain; assay: antibiotic sensitivity test disks on Petri plate inoculated with child's urine (phage plaques around disks); format: cell-based; details: plate inoculated with dilution of child's urine; strain infected by bacteriophages
# non-infected E. coli MFP = assay: antibiotic sensitivity test disks on non-infected MFP strain; format: cell-based, Escherichia coli; details: FIG. 1
# φmF-infected E. coli MFP = assay: φmF plaque size around antibiotic disks on MFP strain; format: cell-based, Escherichia coli
# Text: A culture of non-infected MFP strain has been grown overnight in LB liquid medium, and then a dilution of the culture either alone or mixed with φmF phage have been inoculated on a series of nutrient Petri plate where different antibiotic sensitivity test disks were placed on the surface.
# The entire surface of the Petri plate was inoculated with a mixture of both the MFP bacterial host and with the phage φmF that could infect it (see FIG. 1, φmF-infected E. coli MFP).
# AS19 bacterial strain [2] = assay: different antibiotic test disks, T4-type phages on AS19 bacterial strain; format: cell-based, E. coli; details: T4-like phages
# [3] = test system: Escherichia. coli bacterial strain AS19; assay: T4 plaque size with CTX disk on bacterial strain AS19; format: cell-based; parameters: key to the marks not given beside the values; details: bacterial strain AS19, bacteriophage T4, CTX test disk
# [4] = test system: Escherichia. coli bacterial strain P400; assay: T4 plaque size with CTX disk on bacterial strain P400; format: cell-based; details: bacterial strain P400, bacteriophage T4, CTX test disk
# [5] = test system: Escherichia. coli bacterial strain C600; assay: T4 plaque size with CTX disk on bacterial strain C600; details: bacterial strain C600, bacteriophage T4, CTX test disk
# [6] = test system: Escherichia. coli bacterial strain S/6; assay: T4 plaque size with CTX disk on bacterial strain S/6; parameters: key to the marks not given beside the values; details: bacterial strain S/6, bacteriophage T4, CTX test disk
# [7] = test system: Escherichia. coli bacterial strain MC1061; assay: T4 plaque size with CTX disk on bacterial strain MC1061; details: bacterial strain MC1061, bacteriophage T4, CTX test disk
# AS19 bacterial strain [8] = assay: morphology of T4 infected AS19 bacteria with or without CTX by optical microscopy; format: cell-based, E. coli; details: CTX 0.003 μg/ml, several hours after infection, FIG. 4
# Text: The morphology of the bacteria in culture has been observed by optical microscopy at different times after infection.
# AS19 bacterial strain [9] = assay: growth of AS19 bacterial strain in LB liquid medium with low dose CTX (OD600, CFU/ml); format: cell-based, E. coli; details: CTX 0.003 μg/ml
# Procedure: Growth was measured either by OD600 (A) or CFU/ml (B). The times (T) is indicated in minutes after addition of CTX to the growth medium.
# To examine the effect of low doses of the β-lactam antibiotic CTX on a culture of the AS19 bacterial strain, this bacterial strain was grown in LB liquid medium with CTX at a dosage level (0.003 μg/ml) that produces a substantial effect synergistic when infected with T4 phage.
# [10] = test system: Escherichia. coli bacterial strain BE; assay: T4 plaque size with CTX disk on bacterial strain BE; format: cell-based; parameters: key to the marks not given beside the values; details: bacteriophage T4, CTX test disk
compound,measurement,setting,value
"C[C@H]1[C@H](NC(=O)/C(=N\OC(C)(C)C(=O)O)c2csc(N)n2)C(=O)N1S(=O)(=O)O [ATM, aztreonam]",size of phage plaques in the zone of non lethal concentrations of antibiotic that encircled antibiotic disks,[1],much larger
same,sensitivity or resistance of the MFP bacterial strain to antibiotic (zone of growth inhibition around disks),non-infected E. coli MFP,sensitivity
same,stimulation of phage φMFP growth by antibiotic disks,"φmF-infected E. coli MFP; FIG. 1, disks marked with +",good stimulation
same,size of φmF plaques in the zone of non lethal antibiotic concentration around disks,"φmF-infected E. coli MFP; MFP host mixed with phage φmF, FIG. 1",significantly larger size
NCC[C@H](O)C(=O)N[C@@H]1C[C@H](N)[C@@H](O[C@H]2O[C@H](CN)[C@@H](O)[C@H](O)[C@H]2O)[C@H](O)[C@H]1O[C@H]1O[C@H](CO)[C@@H](O)[C@H](N)[C@H]1O [Amikacin],stimulation of T4 phage production (synergistic effect on phage T4 growth),AS19 bacterial strain [2],failed to stimulate T4 phage production
CC1(C)S[C@@H]2[C@H](NC(=O)[C@H](N)c3ccc(O)cc3)C(=O)N2[C@H]1C(=O)O [Amoxicillin],sensitivity or resistance of the MFP bacterial strain to antibiotic (zone of growth inhibition around disks),non-infected E. coli MFP,resistance
"CO/N=C(\C(=O)N[C@@H]1C(=O)N2C(C(=O)O)=C(COC(C)=O)CS[C@H]12)c1csc(N)n1 [CTX, Cefotaxime]",synergy (size of phage plaques) with CTX (Cefotaxime),[3],+++
same,synergy (size of phage plaques) with CTX (Cefotaxime),[4],+
same,synergy (size of phage plaques) with CTX (Cefotaxime),[5],+
same,synergy (size of phage plaques) with CTX (Cefotaxime),[6],++
same,synergy (size of phage plaques) with CTX (Cefotaxime),[7],+
same,cell size of the T4 infected bacteria,AS19 bacterial strain [8],increases in volume considerably producing long fat filaments
same,cell viability as assayed by colony forming units,AS19 bacterial strain [9]; LB liquid medium,little effected
same,cell division,"AS19 bacterial strain [9]; LB liquid medium, FIGS. 3A and 3B",inhibited
same,optical density of the culture treated with the drug,AS19 bacterial strain [9]; after the addition of the drug,continues to increase for at least two hours
same,synergy (size of phage plaques) with CTX (Cefotaxime),[10],+++
O=C(N[C@H](CO)[C@H](O)c1ccc([N+](=O)[O-])cc1)C(Cl)Cl [Choramphenicol],stimulation of T4 phage production (synergistic effect on phage T4 growth),AS19 bacterial strain [2],failed to stimulate T4 phage production
C[C@@H]1O[C@@H]1P(=O)(O)O [Fosfomycin],stimulation of T4 phage production (synergistic effect on phage T4 growth),AS19 bacterial strain [2],failed to stimulate T4 phage production
"CCn1cc(C(=O)O)c(=O)c2ccc(C)nc21 [Nalidix Acid, Nalidixic acid]",stimulation of T4 phage production (synergistic effect on phage T4 growth),AS19 bacterial strain [2],causes a synergistic effect
CO[C@H]1/C=C/O[C@@]2(C)Oc3c(C)c(O)c4c(O)c(c(/C=N/N5CCN(C)CC5)c(O)c4c3C2=O)NC(=O)/C(C)=C\C=C\[C@H](C)[C@H](O)[C@@H](C)[C@@H](O)[C@@H](C)[C@H](OC(C)=O)[C@@H]1C [Rifampin],stimulation of T4 phage production (synergistic effect on phage T4 growth),AS19 bacterial strain [2],failed to stimulate T4 phage production
COc1cc(Cc2cnc(N)nc2N)cc(OC)c1OC [Trimethoprim],stimulation of T4 phage production (synergistic effect on phage T4 growth),AS19 bacterial strain [2],failed to stimulate T4 phage production
Colistin,stimulation of T4 phage production (synergistic effect on phage T4 growth),AS19 bacterial strain [2],failed to stimulate T4 phage production
Gentamicin,stimulation of T4 phage production (synergistic effect on phage T4 growth),AS19 bacterial strain [2],failed to stimulate T4 phage production
